Reference: patent US20060069132A1, “Azolecarboxamide herbicides” (priority 2004, published 2006)

Tests used:
Test in all cases: Test C pre-/postemergence herbicide test
yellow nutsedge = format: in vivo, Cyperus esculentus; conditions: for Plant response rating (0 = no effect, 100 = complete control), Nutsedge, Yellow / Plant response rating, Nutsedge, Yellow: preemergence; for Nutsedge, Yellow plant response rating: Preemergence, scale 0 to 100, 0 no effect, 100 complete control
How it was run: (§1)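 Seeds were planted and sprayed preemergence with test chemicals in a non-phytotoxic solvent mixture containing surfactant; postemergence treatments went onto plants 2 to 18 cm tall (1- to 4-leaf stage). After 12 to 14 days in a greenhouse, injury was rated visually against untreated controls on a 0–100 scale.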

eastern black nightshade = format: in vivo, Solanum ptycanthum; conditions: for Plant response rating (0 = no effect, 100 = complete control), Nightshade / Plant response rating, Nightshade: preemergence; for Nightshade plant response rating: Preemergence, scale 0 to 100, 0 no effect, 100 complete control
How it was run: as §1

pigweed = format: in vivo, Amaranthus retroflexus; conditions: for Plant response rating (0 = no effect, 100 = complete control), Pigweed / Plant response rating, Pigweed: preemergence; for Pigweed plant response rating: Preemergence, scale 0 to 100, 0 no effect, 100 complete control
How it was run: as §1

[1] = 125 g ai/ha, scale 0 (no effect) to 100 (complete control), visual, 12 to 14 days
[2] = 500 g ai/ha, scale 0 to 100 (0 no effect, 100 complete control), visual, 12 to 14 days
[3] = 250 g ai/ha, scale 0 to 100 (0 no effect, 100 complete control), visual, 12 to 14 days

Row | SMILES | Plant response rating (0 = no effect, 100 = complete control), Nutsedge, Yellow (yellow nutsedge; 62 g ai/ha) | Plant response rating, Nutsedge, Yellow (yellow nutsedge; [1]) | Nutsedge, Yellow plant response rating (yellow nutsedge; 500 g ai/ha) | Plant response rating (0 = no effect, 100 = complete control), Nightshade (eastern black nightshade; 62 g ai/ha) | Plant response rating, Nightshade (eastern black nightshade; [1]) | Nightshade plant response rating (eastern black nightshade; 500 g ai/ha) | Plant response rating (0 = no effect, 100 = complete control), Pigweed (pigweed; 62 g ai/ha) | Plant response rating, Pigweed (pigweed; [1]) | Pigweed plant response rating (pigweed; 500 g ai/ha) | Plant response rating, Nutsedge, Yellow (yellow nutsedge; 62 g ai/ha, scale 0 to 100) | Plant response rating (0 = no effect, 100 = complete control), Nutsedge, Yellow (yellow nutsedge; 125 g ai/ha) | Plant response rating, Nutsedge, Yellow (yellow nutsedge; [2]) | Plant response rating, Nightshade (eastern black nightshade; 62 g ai/ha, scale 0 to 100) | Plant response rating (0 = no effect, 100 = complete control), Nightshade (eastern black nightshade; 125 g ai/ha) | Plant response rating, Nightshade (eastern black nightshade; [2]) | Plant response rating, Pigweed (pigweed; 62 g ai/ha, scale 0 to 100) | Plant response rating (0 = no effect, 100 = complete control), Pigweed (pigweed; 125 g ai/ha) | Plant response rating, Pigweed (pigweed; [2]) | other results
1 | CCn1nc(C(C)(C)C)cc1C(=O)Nc1cc(C#N)ccc1F [Compound 140] | 0 | 0 | 0 | 0 | 0 | 95 | 100 | 100 | 100 | – | – | – | – | – | – | – | – | – | –
2 | CCNC(=O)c1ccc(F)c(N(C(C)=O)C(=O)c2cc(C(C)(C)C)nn2CC)c1 [Compound 399] | – | – | – | – | – | – | – | – | – | 45 | 75 | 95 | 95 | 100 | 100 | 100 | 100 | 100 | –
3 | CCn1nc(C(C)(C)C)cc1C(=O)Nc1cc(C(=O)N(C)C)ccc1F [Compound 6, N-[5-[(dimethylamino)carbonyl]-2-fluorophenyl]-3-(1,1-dimethylethyl)-1-ethyl-1H-pyrazole-5-carboxamide] | 50 | – | 85 | 100 | – | 100 | 100 | – | 100 | – | – | – | – | – | – | – | – | – | pest or weed control at 250 g/ha (yellow nutsedge; Cyperus, pre-emergence, 250 g ai/ha, scale 0 to 100 (0 no effect, 100 complete control), visual, 12 to 14 days, read-out: Plant response rating, Nutsedge, Yellow): 80%; pest or weed control at 250 g/ha (eastern black nightshade; pre-emergence, 250 g ai/ha, scale 0 to 100 (0 no effect, 100 complete control), visual, 12 to 14 days, read-out: Plant response rating, Nightshade): 100%; pest or weed control at 250 g/ha (pigweed; Amaranthus retroflexus, pre-emergence, 250 g ai/ha, scale 0 to 100 (0 no effect, 100 complete control), visual, 12 to 14 days, read-out: Plant response rating, Pigweed): 100%
4 | CCCn1nc(C(C)(C)C)cc1C(=O)Nc1cccc(C(=O)NCC)c1 [Compound 57] | 0 | 0 | 20 | 85 | 95 | 100 | 100 | 100 | 100 | – | – | – | – | – | – | – | – | – | Plant response rating, Nutsedge, Yellow (yellow nutsedge; [3]): 0; Plant response rating, Nightshade (eastern black nightshade; [3]): 100; Plant response rating, Pigweed (pigweed; [3]): 100
5 | CCC1=NN(C(C)(C)C)CC1C(=O)Nc1cc(C(=O)N(C)CC)ccc1F (racemic) [Compound 342] | – | – | – | – | – | – | – | – | – | 0 | 0 | 60 | 60 | 80 | 85 | 80 | 90 | 100 | Plant response rating, Nutsedge, Yellow (yellow nutsedge; 250 g ai/ha, scale 0-100): 40; Plant response rating, Nightshade (eastern black nightshade; 250 g ai/ha, scale 0-100): 80; Plant response rating, Pigweed (pigweed; 250 g ai/ha, scale 0-100): 100
